Experimental data taken from ChEMBL document CHEMBL2074470, “P-glycoprotein-mediated transport of itraconazole across the blood-brain barrier” (Antimicrob Agents Chemother, 1998).

Biological target: ATP-dependent translocase ABCB1 (Mus musculus, UniProt P21447)
Experiment: TP_TRANSPORTER: increase in brain concentration in mdr1a(-/-) mouse
Type: functional, organism-based
Conditions: in vivo

Sequence of ATP-dependent translocase ABCB1 (P21447 whole entry): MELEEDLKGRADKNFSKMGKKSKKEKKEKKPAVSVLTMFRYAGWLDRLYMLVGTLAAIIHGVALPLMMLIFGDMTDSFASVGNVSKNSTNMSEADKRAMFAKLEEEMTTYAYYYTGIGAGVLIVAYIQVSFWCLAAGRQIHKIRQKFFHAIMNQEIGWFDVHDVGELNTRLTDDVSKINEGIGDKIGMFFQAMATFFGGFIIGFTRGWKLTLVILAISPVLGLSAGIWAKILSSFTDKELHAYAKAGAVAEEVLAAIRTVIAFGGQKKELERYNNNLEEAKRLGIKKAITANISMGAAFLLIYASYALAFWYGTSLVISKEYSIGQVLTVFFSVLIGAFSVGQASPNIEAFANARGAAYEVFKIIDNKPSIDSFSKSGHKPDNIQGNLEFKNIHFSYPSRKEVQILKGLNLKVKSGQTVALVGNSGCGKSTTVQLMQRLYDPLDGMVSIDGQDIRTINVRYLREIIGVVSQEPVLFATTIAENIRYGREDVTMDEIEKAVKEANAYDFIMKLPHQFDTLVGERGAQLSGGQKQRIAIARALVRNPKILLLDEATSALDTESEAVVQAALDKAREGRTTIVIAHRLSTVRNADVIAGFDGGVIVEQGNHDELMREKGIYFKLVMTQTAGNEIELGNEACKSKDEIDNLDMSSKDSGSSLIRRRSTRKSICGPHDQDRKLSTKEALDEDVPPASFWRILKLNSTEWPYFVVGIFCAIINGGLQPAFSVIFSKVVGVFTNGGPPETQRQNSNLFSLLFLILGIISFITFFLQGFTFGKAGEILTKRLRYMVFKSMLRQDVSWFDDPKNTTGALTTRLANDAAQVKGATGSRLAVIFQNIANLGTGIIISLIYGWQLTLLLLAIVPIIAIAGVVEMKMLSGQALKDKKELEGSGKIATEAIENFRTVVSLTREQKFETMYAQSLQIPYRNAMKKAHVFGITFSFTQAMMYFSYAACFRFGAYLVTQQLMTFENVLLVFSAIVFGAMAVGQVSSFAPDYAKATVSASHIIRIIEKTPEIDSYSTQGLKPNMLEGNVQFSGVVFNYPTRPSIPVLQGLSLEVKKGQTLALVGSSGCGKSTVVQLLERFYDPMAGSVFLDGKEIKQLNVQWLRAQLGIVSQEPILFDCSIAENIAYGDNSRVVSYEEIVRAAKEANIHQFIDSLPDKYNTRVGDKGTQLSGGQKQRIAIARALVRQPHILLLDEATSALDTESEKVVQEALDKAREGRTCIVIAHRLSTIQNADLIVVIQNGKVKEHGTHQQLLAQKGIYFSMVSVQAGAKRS

SMILES: CCC(C)n1ncn(-c2ccc(N3CCN(c4ccc(OCC5COC(Cn6cncn6)(c6ccc(Cl)cc6Cl)O5)cc4)CC3)cc2)c1=O (stereo unspecified) [ITRACONAZOLE]
- Activity: substrate [+]
